Usually Ki stands for the dissociation constant of the complex between target and ligand, obtained from inhibition or displacement. Lower therefore signals higher affinity.

SMILES strings stand for the structures.

This note sets out measurements from BindingDB's records for PubMed 11082457 (Centre De Recherches De Croissy, 2000).

For assay [1], the target named is T1, Amine oxidase [flavin-containing] B (Rattus norvegicus, UniProt P19643).
T1 sequence (P19643 whole entry): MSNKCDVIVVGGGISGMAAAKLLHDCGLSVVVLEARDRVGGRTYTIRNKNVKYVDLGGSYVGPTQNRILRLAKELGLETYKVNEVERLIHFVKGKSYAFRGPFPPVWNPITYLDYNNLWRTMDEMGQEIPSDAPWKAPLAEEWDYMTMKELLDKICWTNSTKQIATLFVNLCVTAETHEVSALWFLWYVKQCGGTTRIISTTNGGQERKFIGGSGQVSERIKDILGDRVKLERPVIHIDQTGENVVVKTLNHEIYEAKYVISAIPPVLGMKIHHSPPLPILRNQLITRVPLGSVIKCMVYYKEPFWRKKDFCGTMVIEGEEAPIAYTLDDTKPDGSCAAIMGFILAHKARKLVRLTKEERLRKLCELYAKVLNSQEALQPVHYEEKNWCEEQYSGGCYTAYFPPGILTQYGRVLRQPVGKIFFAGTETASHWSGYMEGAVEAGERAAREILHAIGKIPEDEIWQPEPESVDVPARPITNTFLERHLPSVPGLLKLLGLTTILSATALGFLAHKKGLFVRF

The target of another assay is Nischarin (Rattus norvegicus, UniProt Q4G017).
Assay [2] has as its target T2, Alpha-1B adrenergic receptor (Rattus norvegicus, UniProt P15823).
T2 sequence (P15823 whole entry): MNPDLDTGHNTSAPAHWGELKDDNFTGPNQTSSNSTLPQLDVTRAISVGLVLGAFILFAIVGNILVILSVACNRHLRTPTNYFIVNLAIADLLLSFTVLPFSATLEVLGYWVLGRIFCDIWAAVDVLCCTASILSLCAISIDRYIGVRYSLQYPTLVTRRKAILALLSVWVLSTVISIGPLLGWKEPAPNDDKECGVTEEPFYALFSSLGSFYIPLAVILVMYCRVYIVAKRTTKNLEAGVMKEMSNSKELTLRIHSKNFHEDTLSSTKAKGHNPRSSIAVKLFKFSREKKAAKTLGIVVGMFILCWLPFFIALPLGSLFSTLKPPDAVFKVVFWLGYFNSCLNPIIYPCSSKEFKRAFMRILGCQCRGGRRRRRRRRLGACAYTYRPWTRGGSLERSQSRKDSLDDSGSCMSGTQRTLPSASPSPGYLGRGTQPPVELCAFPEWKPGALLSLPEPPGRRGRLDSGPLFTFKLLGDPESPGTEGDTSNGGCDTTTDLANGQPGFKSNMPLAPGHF

Assay [3] addresses T3, Alpha-1B adrenergic receptor (Homo sapiens, UniProt P35368).
T3 sequence (P35368 whole entry): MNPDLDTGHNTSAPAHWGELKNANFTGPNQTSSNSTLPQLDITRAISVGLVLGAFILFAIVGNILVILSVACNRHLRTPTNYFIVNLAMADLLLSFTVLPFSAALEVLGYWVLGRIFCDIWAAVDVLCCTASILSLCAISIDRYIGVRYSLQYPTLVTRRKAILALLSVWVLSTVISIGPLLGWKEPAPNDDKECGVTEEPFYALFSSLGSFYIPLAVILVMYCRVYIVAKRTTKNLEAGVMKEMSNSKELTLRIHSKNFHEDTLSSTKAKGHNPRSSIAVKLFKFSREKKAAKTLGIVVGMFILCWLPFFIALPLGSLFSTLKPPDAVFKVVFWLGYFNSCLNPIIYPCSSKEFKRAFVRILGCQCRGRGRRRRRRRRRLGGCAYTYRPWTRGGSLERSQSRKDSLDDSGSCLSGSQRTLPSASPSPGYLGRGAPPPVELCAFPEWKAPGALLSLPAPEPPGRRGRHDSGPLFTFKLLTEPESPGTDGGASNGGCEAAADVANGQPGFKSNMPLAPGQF

Assay [4] has as its target T4, Alpha-2C adrenergic receptor (Rattus norvegicus, UniProt P22086).
T4 sequence (P22086 whole entry): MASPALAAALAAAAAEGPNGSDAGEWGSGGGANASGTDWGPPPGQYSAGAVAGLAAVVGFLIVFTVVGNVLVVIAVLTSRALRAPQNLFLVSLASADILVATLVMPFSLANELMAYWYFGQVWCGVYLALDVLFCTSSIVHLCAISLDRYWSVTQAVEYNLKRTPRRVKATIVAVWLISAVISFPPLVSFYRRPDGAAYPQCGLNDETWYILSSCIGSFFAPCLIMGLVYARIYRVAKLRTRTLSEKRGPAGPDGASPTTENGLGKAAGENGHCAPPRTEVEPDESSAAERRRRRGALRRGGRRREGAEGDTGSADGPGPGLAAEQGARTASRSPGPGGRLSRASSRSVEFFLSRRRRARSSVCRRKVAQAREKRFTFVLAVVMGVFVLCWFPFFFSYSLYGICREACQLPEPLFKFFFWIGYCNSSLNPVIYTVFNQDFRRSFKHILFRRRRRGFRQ

Nischarin, sequence (Q4G017 whole entry): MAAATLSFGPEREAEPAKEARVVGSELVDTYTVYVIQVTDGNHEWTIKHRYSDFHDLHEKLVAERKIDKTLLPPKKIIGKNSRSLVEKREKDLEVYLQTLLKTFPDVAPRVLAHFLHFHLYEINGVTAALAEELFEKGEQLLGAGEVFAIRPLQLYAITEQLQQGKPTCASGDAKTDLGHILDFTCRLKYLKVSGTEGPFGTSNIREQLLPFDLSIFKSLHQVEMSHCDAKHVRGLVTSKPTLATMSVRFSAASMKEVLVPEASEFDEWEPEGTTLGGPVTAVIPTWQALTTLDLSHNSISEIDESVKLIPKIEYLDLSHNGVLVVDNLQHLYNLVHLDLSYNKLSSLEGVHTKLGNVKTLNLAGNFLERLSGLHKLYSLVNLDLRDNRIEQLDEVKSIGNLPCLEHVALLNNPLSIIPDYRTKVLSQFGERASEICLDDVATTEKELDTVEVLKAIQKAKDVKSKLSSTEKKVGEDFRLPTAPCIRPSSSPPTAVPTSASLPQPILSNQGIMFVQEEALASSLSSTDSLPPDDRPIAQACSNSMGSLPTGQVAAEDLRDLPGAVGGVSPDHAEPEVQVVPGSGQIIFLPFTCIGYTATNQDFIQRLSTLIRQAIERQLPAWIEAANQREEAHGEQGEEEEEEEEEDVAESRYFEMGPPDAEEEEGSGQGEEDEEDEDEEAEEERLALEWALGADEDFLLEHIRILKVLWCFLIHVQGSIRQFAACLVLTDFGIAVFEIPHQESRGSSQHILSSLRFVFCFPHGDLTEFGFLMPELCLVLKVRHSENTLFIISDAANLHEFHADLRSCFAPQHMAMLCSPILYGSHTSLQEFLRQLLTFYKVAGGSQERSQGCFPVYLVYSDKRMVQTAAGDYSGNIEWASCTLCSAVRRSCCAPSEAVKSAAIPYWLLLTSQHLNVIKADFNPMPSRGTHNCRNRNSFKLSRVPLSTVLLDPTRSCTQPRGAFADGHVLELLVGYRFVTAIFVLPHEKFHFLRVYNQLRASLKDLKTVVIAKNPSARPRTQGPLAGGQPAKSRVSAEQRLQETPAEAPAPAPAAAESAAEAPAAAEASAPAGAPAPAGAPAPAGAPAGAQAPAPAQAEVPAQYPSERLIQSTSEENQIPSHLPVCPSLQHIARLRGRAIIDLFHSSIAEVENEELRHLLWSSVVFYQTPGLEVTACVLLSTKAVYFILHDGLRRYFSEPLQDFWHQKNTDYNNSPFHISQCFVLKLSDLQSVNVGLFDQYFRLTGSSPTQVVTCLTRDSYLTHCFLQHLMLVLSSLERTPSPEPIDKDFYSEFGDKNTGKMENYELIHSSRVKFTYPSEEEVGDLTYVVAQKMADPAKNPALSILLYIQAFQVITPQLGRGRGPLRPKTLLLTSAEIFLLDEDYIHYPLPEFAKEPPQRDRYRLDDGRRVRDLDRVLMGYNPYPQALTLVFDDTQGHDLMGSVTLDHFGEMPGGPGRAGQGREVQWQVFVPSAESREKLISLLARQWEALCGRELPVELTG

For `Cc1cccc([C@@H](C)c2cnc[nH]2)c1C`, the Ki was 1000 nM in assay [1]; 50.1 nM on Nischarin; 316 nM in assay [2]; 316 nM in assay [3]; 1 nM in assay [4].

For the compound `NC1=NC2(CCc3ccccc3C2)CO1` (stereo not given) [S18616], the Ki is 1000 nM in assay [1]; 79.4 nM at Nischarin; 100 nM in assay [2]; 20 nM in assay [3]; 0.159 nM in assay [4].
